What was measured:
T24 cells [1] = assay: Cell cycle analysis (PI staining, FACS); format: cell-based, human; conditions: 24 hours, DQ 30, sCBD 30, MMC 8 μg/mL
Description: For cell cycle analysis, cells were seeded in 6-wells culture plates at a concentration of 5×10^5 cells per well in McCoy (for T24 cells). The following day, media was replaced with new media containing treatments or methanol control. Cells were then incubated for 24 h at 37° C. in a humidified 5% CO2, 95% air atmosphere. Following 24 h of incubation, media was replaced with new media containing treatment or methanol control. Cells from each well were then harvested and collected separately and centrifuged for 2 min at 900 g. The cell pellet was washed once with 1 mL of PBS and fixed with 70% cold ethanol at 4° C. for at least 1 h. The fixed cells were pelleted out and washed twice with 1 mL of PBS. The cell pellet was then stained by re-suspending in 250 μL of PI solution (50 μg/mL) containing RNase A (100 μg/mL) for 30 min in the dark. Following, 200 μL of PBS were added to each tube and cells were analyzed using FACS.
Cell proliferation assay—XTT assay was carried on T24 and HTB-9 cells. 1×10^4 cells/well were seeded in 96-well plates. […] MMC was used as a positive control. XTT reagent (2,3,-bis (2-methoxy-4-nitro-5-sulfophenyl)-5-[(phenylamino)-carbonyl]-2H-tetrazolium inner salt) was added for 2 h at 37° C. in a humidified atmosphere of 5% CO2 to 95% air. Absorbance was recorded by a Synergy 111 hybrid reader photometer (BioTek) at 490 nm with 650 nm of reference wavelength. Cell survival (% r, viability) was estimated using the equation: % cell survival=(A490−A650) of treatment/(A490−A650) of solvent control×100. A490 and A650 are the absorbencies of the XTT colorimetric reaction. […] Apoptosis assay and cell cycle analysis—T24 cells were treated with cannabis compounds or with methanol as vehicle control. The cell cycle was determined at 24 hours and apoptosis was determined at 48 hours following treatment. Staining and detection followed the manufacturer's instructions. […] Then 200 μL of PBS was added to each tube and the cells were analyzed using FACS.

E-cadherin = assay: qRT-PCR of E-cadherin mRNA in T24 cells; format: cell-based, human; conditions: 2 hours treatment, extracts 30, MMC 8 μg/mL
Description: […] The RNA was reverse transcribed. The expression of each target gene was normalized to the expression of hypoxanthine phosphoribosyltransferase 1 (HPRT1; geneID 3251) mRNA as the 2^−66 ΔCt method that presents the differences ( ) in the threshold cycle (Ct) between the target gene and the HPRT1 gene. ΔCt=Ct target gene—Ct HPRT1. Experiments were repeated 4 times (4 biological repeats), with two more technical repeats. The primers were as follows:

N-cadherin = assay: qRT-PCR of N-cadherin mRNA in T24 cells; format: cell-based, human; conditions: 2 hours treatment, 2 hours after washout
Description: […] Cells were then harvested and total RNA was isolated. The RNA was reverse transcribed. The expression of each target gene was normalized to the expression of hypoxanthine phosphoribosyltransferase 1 (HPRT1; geneID 3251) mRNA as the 2^−66 ΔCt method that presents the differences ( ) in the threshold cycle (Ct) between the target gene and the HPRT1 gene. ΔCt=Ct target gene—Ct HPRT1. Experiments were repeated 4 times (4 biological repeats), with two more technical repeats. The primers were as follows:

T24 cells [2] = assay: Apoptosis assay (Annexin V-FITC and PI, FACS); format: cell-based, human; conditions: 48 hours
Description: Apoptosis assay and cell cycle analysis—T24 cells were treated with cannabis compounds or with methanol as a vehicle control. Cell cycle was determined at 24 h and apoptosis was determined at 48 h post-treatment. Staining and detection followed manufacturer instructions. Briefly, for the apoptosis assay, the MEBCYTO Apoptosis Kit with Annexin V-FITC and PI (MBL, Enco, 4700) was used. Cells were seeded in culture 6-wells plates, at density of 5×10^5 cells per well in McCoy's 5A (for T24 a cells) or in RPMI (for HTB-9 cells). The following day, media was replaced with new media containing treatment or methanol control. Cells were then incubated for 24 or 48 h at 37° C. in a humidified 5% CO2 95% air atmosphere. Following incubation, cells were harvested and collected separately. Tubes were centrifuged for 2 min at 900 g and cell pellets were resuspended and washed twice with 1 mL of PBS. The cells in each sample were resuspended in 85 μL of Annexin binding buffer. Cells were stained using 10 μL of Annexin V-FITC solution and 5 μL of propidium iodide (PI) working solution followed by 15 min incubation in the dark at room temperature. Then 400 μL of Annexin V binding buffer were added to each tube and flow cytometry was performed using a FORTESA flow cytometer (FACS). Cells were considered to be apoptotic if they were Annexin V+/PI− (early apoptotic) or Annexin V+/PI+ (late apoptotic). Live cells were defined as Annexin V−/PI−, and Annexin V−/PI+ as necrotic.
Cell proliferation assay—XTT assay was carried on T24 and HTB-9 cells. 1×10^4 cells/well were seeded in 96-well plates. […] MMC was used as a positive control. […] Absorbance was recorded by a Synergy 111 hybrid reader photometer (BioTek) at 490 nm with 650 nm of reference wavelength. […] The cell cycle was determined at 24 hours and apoptosis was determined at 48 hours following treatment. […] Then 200 μL of PBS was added to each tube and the cells were analyzed using FACS.

T24 cells [3] = assay: Transwell cell invasion assay; conditions: MMC 4 μg/mL, positive control
Description: A transwell assay, as described in [35], was used to determine cell invasion (n=3),

CO[C@@]12[C@H](COC(N)=O)C3=C(C(=O)C(C)=C(N)C3=O)N1C[C@@H]1N[C@@H]12 [MMC, Mitomycin-C]
G2/M-phase cells (T24 cells [1]): 28.1%
S-phase cells (T24 cells [1]; vehicle control 19.6%): 34.4%
E-cadherin expression (E-cadherin; 2 hours after washout): reduced
E-cadherin expression (E-cadherin; 6 hours after washout): significantly induced
N-cadherin expression (N-cadherin): slightly reduced
cell apoptosis (T24 cells [2]; CBC+THC 17.2+2.8, CBD 15, MMC 8 μg/mL, control 46.2%): 79.6%
cell necrosis (T24 cells [2]; DQ 30, sCBD 30, MMC 8 μg/mL, control 1.69%): 25.13%
reduction of cell invasion in comparison to control (T24 cells [3]): 43.7±4.8%
